Laboratory results: US11628160B2, “Compositions and methods for treating brain injury” (Azevan Pharmaceuticals, Inc., priority 2017, dated 2023)

Tests used:
Assay type in all cases: in vivo, rat
[1] = test system: Male Sprague Dawley rats; assay: Treatment in the momentum exchange impact model; conditions: concussed rats, two head impacts; IP 10 mg/kg twice daily 5 days; two weeks post impact; vs sham Control
Protocol: EXAMPLE. Momentum exchange impact model. This model features several advantageous translational differences over some head injury models, such as the controlled cortical impact injury model. For example, the head, neck and body can move with impact, and the velocity of head movement and energy transfer can be calculated and scaled mild to provide range from moderate to severe concussions. Studies are conducted with moderate impacts with neuroradiological evidence of contusions. Male rats are concussed twice with one day. Additional details are described in Viano et al., “Evaluation of three animal models for concussion and serious brain injury” Ann Biomed Eng. 40(1):213-26 (2012). […] Sham non-concussed test animals are given vehicle or test compound. Test animals are treated twice daily for 5 consecutive days. At two weeks post concussion cognitive behaviors are assessed, using for example, the Barnes maze and/or novel recognition models. In addition, motor behaviors are assessed, using for example, beam walk and/or rotarod tests. […]
The pneumatic pressure drive is replicated, 50 g compactor, as described by Viano and reproduced consistently, the 7.4, 9.3, and 11.2 m/s impact velocities described for mild, medium, and severe head injury, respectively. The data described herein are obtained from a 9.12 meters/sec impact velocity, as determined using high-speed video recordings. […]

[2] = test system: Male Sprague Dawley rats; assay: Novel Object Recognition test (momentum exchange impact model)
Protocol: (§1) EXAMPLE. Momentum exchange impact model. This model features several advantageous translational differences over some head injury models, such as the controlled cortical impact injury model. For example, the head, neck and body can move with impact, and the velocity of head movement and energy transfer can be calculated and scaled mild to provide range from moderate to severe concussions. Studies are conducted with moderate impacts with neuroradiological evidence of contusions. Male rats are concussed twice with one day. Additional details are described in Viano et al., “Evaluation of three animal models for concussion and serious brain injury” Ann Biomed Eng. 40(1):213-26 (2012). […] Sham non-concussed test animals are given vehicle or test compound. Test animals are treated twice daily for 5 consecutive days. At two weeks post concussion cognitive behaviors are assessed, using for example, the Barnes maze and/or novel recognition models. In addition, motor behaviors are assessed, using for example, beam walk and/or rotarod tests. In each case, neuroradiological MRI is also performed.
(§2) Beginning on postnatal (P)70, animals are divided into 3 groups (n=6-7/group; Sham Control Group (Control, CG), Injury Group (IG), and Treatment Group (TG) and begin their head impact, and drug regimens. All groups are anaesthetized with 4% isoflurane in oxygen, and Injury group and Treatment group receive the first of two total head impacts) using a custom setup from Animal Imaging Research (AIR; Holden, Mass.) on P70. The day after the first impact (P71), test compound, such as AVN576, is administered to the Treatment group and the Sham Control group. In addition, a vehicle only control group (VCG) is administered saline. All administrations re administered to the Control and Treatment groups twice per day at 0700 and 1400 (IP @10 mg/kg). The drug regimen is continued over the following 4 days (5 days total). The second head impact is delivered two days following the first on P72. Two weeks post impact, animals are imaged and tested for cognitive and motor behaviors. In all evaluations made, there was not a significant difference between the sham control group (CG) receiving test compounds and vehicle-only sham control group (VCG) receiving vehicle.
EXAMPLE. Novel Object Recognition test results. This test assesses episodic learning and memory-related stimulus recognition.

[3] = test system: Male Sprague Dawley rats; assay: Barnes Maze test (momentum exchange impact model)
Protocol: as §1, §2
EXAMPLE. Barnes Maze test results. This test assesses spatial learning and memory.

[4] = test system: Male Sprague Dawley rats; assay: Motor behavior (balance beam, rotarod)
Protocol: EXAMPLE. Momentum exchange impact model. This model features several advantageous translational differences over some head injury models, such as the controlled cortical impact injury model. For example, the head, neck and body can move with impact, and the velocity of head movement and energy transfer can be calculated and scaled mild to provide range from moderate to severe concussions. Studies are conducted with moderate impacts with neuroradiological evidence of contusions. Male rats are concussed twice with one day. Additional details are described in Viano et al., “Evaluation of three animal models for concussion and serious brain injury” Ann Biomed Eng. 40(1):213-26 (2012). […] Sham non-concussed test animals are given vehicle or test compound. Test animals are treated twice daily for 5 consecutive days. At two weeks post concussion cognitive behaviors are assessed, using for example, the Barnes maze and/or novel recognition models. In addition, motor behaviors are assessed, using for example, beam walk and/or rotarod tests. In each case, neuroradiological MRI is also performed. […]

SMILES: C[C@@H](NC(=O)[C@@H](CC(=O)N1CCC(N2CCCCC2)CC1)N1C(=O)[C@@H](N2C(=O)OC[C@@H]2c2ccccc2)[C@H]1/C=C/c1cccc(I)c1)c1ccccc1 [Example 266]
- deficits in learning and memory [1]: no deficits in learning and memory
- percentage of time with the novel object compared to the Injury group ([2]; Treatment group P=0.003): significantly longer percentage of time
- total time with the novel object compared to the Injury group ([2]; Treatment group P=0.02): significantly more total time
- exploration index (exploration instances) compared to the Injury group ([2]; Treatment group P=0.06): only a trend towards significance
- time investigating the novel object (recognition index) compared to chance ([2]; Treatment group, t(5)=2.61, p<0.05, IP 10 mg/kg twice daily 5 days): significantly greater than a chance amount of time
- distance traveled before finding the goal box: Injury group relative to Treatment group ([3]; P=0.03): significantly greater distance
- error duration (time exploring wrong holes): Injury group relative to Treatment group ([3]; P=0.03): significantly more time exploring the wrong holes
- deficits in learning and memory, Barnes maze ([3]; Treatment group, did not differ from control group): did not show any deficits in learning and memory
- latency to find the goal box: Injury group relative to Treatment group ([3]; collapsed across acquisition days, P=0.04): longer latencies to find the goal box
- rotarod latency to fall ([4]; Treatment group, Injury group 69.8±5.5, Control group 105.4±7.6, P=0.2): 84.0 ± 9.0 s
- overall motor behavior, Control vs Treatment group ([4]; concussed rats, IP 10 mg/kg twice daily 5 days): not a significant difference in overall motor behavior
